Experimental data reported in patent US20240092761A1, “QUINAZOLINE COMPOUNDS AND METHODS OF USE” (IAMBIC THERAPEUTICS, INC., priority 2022, published 2024).

Experiments:
MCF-7 cells = test: Cell Growth Inhibition, MCF-7 (CellTiterGlo, 6 days); format: cell-based; conditions: MCF-7, 6-day treatment, CellTiterGlo 2.0
Procedure, shortened: (§1)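 Compounds were run in half-log series, usually 10–10,000 nM, with 500 cells/well of OVCAR-3 or MCF-7 in RPMI plus 10% FBS. After a 6-day culture at 37 °C, viability was read by CellTiterGlo luminescence. Inhibition relative to control was fitted (four-parameter, variable slope) for IC50.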

[1] = molecular target: CDK2/Cyclin E1 full length (Homo sapiens (Human), UniProt P24941); test: CDK2/Cyclin E1 Full Length ADP-Glo Kinase Assay; format: biochemical; conditions: 20 uM ATP, read-out: CDK2/ CyclinE1 IC50
Procedure, shortened: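 ADP-Glo luminescence read-out of ADP formed by 0.328 nM wild-type full-length CDK2/Cyclin E1, 90 min at room temperature with 0.75 uM substrate and 20 uM ATP (Km 64.78 uM), after 30 min enzyme–inhibitor pre-incubation; 50 mM HEPES pH 7.5, 2% DMSO. Four-parameter IC50 fit.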

CDK4/Cyclin D1 = CDK4/Cyclin D1 (Homo sapiens (Human), UniProt P11802); test: CDK4/Cyclin D1 CHEF Assay (AQT0258 peptide); format: biochemical; conditions: 200 uM ATP, read-out: CDK4/ CyclinD1 AQT IC50
Procedure, shortened: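 CDK4/Cyclin D1 (2.5 nM) phosphorylating 10 uM Sox-labelled peptide AQT0258 with 200 uM ATP (Km 195.2 uM), 10 mM MgCl2, 2% DMSO, 54 mM HEPES pH 7.5. Enzyme and inhibitor pre-incubated 30 min, reaction 3 hrs at 22° C.; CHEF fluorescence (ex 360/em 485 nm), IC50 from fractional velocity, 4-parameter fit.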

OVCAR-3 cells = test: Cell Growth Inhibition, OVCAR-3 (CellTiterGlo, 6 days); format: cell-based; conditions: OVCAR-3, 6-day treatment, CellTiterGlo 2.0
Procedure, shortened: as §1

CDK1/Cyclin B1 = CDK1/Cyclin B1 (Homo sapiens (Human), UniProt P06493); test: CDK1/Cyclin B1 ADP-Glo Kinase Assay; format: biochemical; conditions: 80 uM ATP
Procedure, shortened: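 Luminescent ADP-Glo detection of ADP produced over 90 min at room temperature. Enzyme complex 4.917 nM, pre-exposed 30 min to inhibitor; ATP 80 µM (near Km 78.6 µM), substrate 0.75 µM, HEPES pH 7.5, 2% DMSO. Fractional velocity fitted to 4-parameter IC50 equation.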

CDK6/Cyclin D3 = CDK6/Cyclin D3 (Homo sapiens (Human), UniProt Q00534); test: CDK6/Cyclin D3 ADP-Glo Kinase Assay; format: biochemical; conditions: 100 uM ATP, read-out: CDK6/ CyclinD3 IC50
Procedure, shortened: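 Luminescent ADP-Glo read-out of ADP produced, used to fit IC50 (4-parameter equation on fractional velocity against inhibitor concentration). Kinase reaction: enzyme and inhibitor together 30 min, then ATP-containing substrate added for 90 min, all at room temperature.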

Sequence of CDK4/Cyclin D1 (P11802 whole entry): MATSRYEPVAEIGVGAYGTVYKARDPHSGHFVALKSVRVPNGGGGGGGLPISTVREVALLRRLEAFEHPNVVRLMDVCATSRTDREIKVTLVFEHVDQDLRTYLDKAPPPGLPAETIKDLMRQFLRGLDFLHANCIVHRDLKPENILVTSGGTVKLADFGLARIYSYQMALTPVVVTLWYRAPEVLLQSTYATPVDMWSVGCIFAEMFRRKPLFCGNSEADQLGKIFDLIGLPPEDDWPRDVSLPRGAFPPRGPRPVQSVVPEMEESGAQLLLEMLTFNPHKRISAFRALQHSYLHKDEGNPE
Sequence of CDK4/Cyclin D1 (P24385 whole entry partner): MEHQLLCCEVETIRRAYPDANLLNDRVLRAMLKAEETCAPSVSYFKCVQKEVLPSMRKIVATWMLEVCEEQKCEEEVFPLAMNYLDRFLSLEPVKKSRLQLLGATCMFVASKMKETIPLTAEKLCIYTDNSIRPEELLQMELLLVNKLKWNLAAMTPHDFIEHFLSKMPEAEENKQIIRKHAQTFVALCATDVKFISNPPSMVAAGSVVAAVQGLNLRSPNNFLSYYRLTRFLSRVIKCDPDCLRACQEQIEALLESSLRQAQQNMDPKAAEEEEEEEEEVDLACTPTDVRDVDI
Sequence of CDK1/Cyclin B1 (P06493 whole entry): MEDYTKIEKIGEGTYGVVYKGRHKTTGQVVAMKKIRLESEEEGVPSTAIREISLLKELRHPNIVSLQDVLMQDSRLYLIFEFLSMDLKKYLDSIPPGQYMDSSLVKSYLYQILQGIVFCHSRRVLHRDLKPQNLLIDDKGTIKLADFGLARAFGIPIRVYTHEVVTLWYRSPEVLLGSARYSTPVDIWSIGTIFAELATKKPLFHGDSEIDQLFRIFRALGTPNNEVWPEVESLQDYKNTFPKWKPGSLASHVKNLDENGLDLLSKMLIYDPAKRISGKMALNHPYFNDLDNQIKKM
Sequence of CDK1/Cyclin B1 (P14635 whole entry partner): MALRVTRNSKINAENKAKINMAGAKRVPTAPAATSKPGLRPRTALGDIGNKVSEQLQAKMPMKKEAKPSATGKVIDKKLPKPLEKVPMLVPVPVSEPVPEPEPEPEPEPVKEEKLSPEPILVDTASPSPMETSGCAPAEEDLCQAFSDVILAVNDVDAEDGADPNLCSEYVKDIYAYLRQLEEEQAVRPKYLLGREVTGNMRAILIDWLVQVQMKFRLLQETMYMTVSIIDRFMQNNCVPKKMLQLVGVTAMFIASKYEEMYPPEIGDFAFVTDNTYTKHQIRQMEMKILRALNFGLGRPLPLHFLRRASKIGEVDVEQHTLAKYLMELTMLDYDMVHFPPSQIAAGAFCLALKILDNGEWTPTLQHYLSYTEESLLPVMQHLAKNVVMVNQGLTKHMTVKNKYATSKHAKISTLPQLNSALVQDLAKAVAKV
Sequence of CDK6/Cyclin D3 (Q00534 whole entry): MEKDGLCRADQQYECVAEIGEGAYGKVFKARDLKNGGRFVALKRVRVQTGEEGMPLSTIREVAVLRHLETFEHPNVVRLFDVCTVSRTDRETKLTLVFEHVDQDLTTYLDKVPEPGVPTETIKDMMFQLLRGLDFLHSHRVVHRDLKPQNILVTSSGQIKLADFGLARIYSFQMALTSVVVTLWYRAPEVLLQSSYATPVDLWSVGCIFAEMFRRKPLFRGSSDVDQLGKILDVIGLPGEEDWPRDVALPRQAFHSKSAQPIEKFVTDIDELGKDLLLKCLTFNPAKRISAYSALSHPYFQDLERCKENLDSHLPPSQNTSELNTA
Sequence of CDK6/Cyclin D3 (P30281 whole entry partner): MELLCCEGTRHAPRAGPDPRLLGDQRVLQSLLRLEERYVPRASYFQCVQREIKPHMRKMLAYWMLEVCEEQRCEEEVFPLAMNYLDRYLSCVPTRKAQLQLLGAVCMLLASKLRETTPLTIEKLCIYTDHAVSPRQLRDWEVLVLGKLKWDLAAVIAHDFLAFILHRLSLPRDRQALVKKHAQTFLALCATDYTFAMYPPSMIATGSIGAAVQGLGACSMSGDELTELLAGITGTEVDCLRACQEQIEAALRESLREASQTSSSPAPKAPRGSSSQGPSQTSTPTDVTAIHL

| SMILES | IC50 (MCF-7 cells; Homo sapiens, MCF7, 144 h) [µM] | IC50 [1] [µM] | IC50 (CDK4/Cyclin D1) [µM] | IC50 (OVCAR-3 cells; Homo sapiens, 144 h) [µM] | IC50 (CDK1/Cyclin B1) [µM] | IC50 (CDK6/Cyclin D3) [µM] | IC50 (MCF-7 cells) [µM] | IC50 (OVCAR-3 cells) [µM] |
| --- | --- | --- | --- | --- | --- | --- | --- | --- |
| CN1CC2(CCN(c3cc(C(F)F)cc4cnc(NC5CCN(c6ncc7ccn(C8CC8)c7n6)CC5)nc34)C2)C1 [Example 71, N-(1-(7-cyclopropyl-7H-pyrrolo[2,3-d]pyrimidin-2-yl)piperidin-4-yl)-6-(difluoromethyl)-8-(2-methyl-2,6-diazaspiro[3.4]octan-6-yl)quinazolin-2-amine] | 0.5 to 2 | 0.2 to 0.5 | < 0.2 | 0.5 to 2 | > 2 | 0.5 to 2 |  |  |
| CN1C[C@@H]2C(Nc3ncc4cc(C(F)F)cc(N5CCC6(CCN(S(C)(=O)=O)C6)C5)c4n3)[C@@H]2C1 (stereo partly drawn) [Example 56, 6-(difluoromethyl)-N-((1R,5S,6s)-3-methyl-3-azabicyclo[3.1.0]hexan-6-yl)-8-(7-(methylsulfonyl)-2,7-diazaspiro[4.4]nonan-2-yl)quinazolin-2-amine] |  | > 2 | 0.2 to 0.5 |  | > 2 | > 2 | > 2 | > 2 |
| CS(=O)(=O)N1CCC(Nc2ncc3cc(C(F)F)cc(N4CC5(CCNC5)C4)c3n2)CC1 [Example 63, 6-(difluoromethyl)-N-(1-(methylsulfonyl)piperidin-4-yl)-8-(2,6-diazaspiro[3.4]octan-2-yl)quinazolin-2-amine] | 0.5 to 2 | < 0.2 | < 0.2 | 0.5 to 2 | < 0.2 | < 0.2 |  |  |
| CN1CC2(CCN(c3cc(C(F)F)cc4cnc(NC5CCN(S(=O)(=O)C6(C)CC6)CC5)nc34)C2)C1 [Example 83, 6-(difluoromethyl)-8-(2-methyl-2,6-diazaspiro[3.4]octan-6-yl)-N-(1-((1-methylcyclopropyl)sulfonyl)piperidin-4-yl)quinazolin-2-amine] | 0.5 to 2 | < 0.2 | < 0.2 | 0.5 to 2 | 0.2 to 0.5 | < 0.2 |  |  |
| CS(=O)(=O)N1CCC(Nc2ncc3cccc(N4CC5(CNCC5(F)F)C4)c3n2)CC1 [Example 111, 8-(8,8-difluoro-2,6-diazaspiro[3.4]octan-2-yl)-N-(1-(methylsulfonyl)piperidin-4-yl)quinazolin-2-amine] | 0.5 to 2 | < 0.2 | < 0.2 | 0.5 to 2 | 0.5 to 2 | < 0.2 |  |  |
| CN1Cc2ccc(Nc3ncc4cc(C(F)F)cc(N5CC6(C5)CN(C5CC5)C6)c4n3)cc2C1 [Example 65, 8-(6-cyclopropyl-2,6-diazaspiro[3.3]heptan-2-yl)-6-(difluoromethyl)-N-(2-methylisoindolin-5-yl)quinazolin-2-amine] | 0.5 to 2 | < 0.2 | < 0.2 | 0.5 to 2 | > 2 | < 0.2 |  |  |
| CS(=O)(=O)N1CCC(Nc2ncc3cc(C(F)(F)F)cc(C4CC(O)(C5CC5)C4)c3n2)CC1 (stereo not drawn) [Example 114, 1-cyclopropyl-3-(2-((1-(methylsulfonyl)piperidin-4-yl)amino)-6-(trifluoromethyl)quinazolin-8-yl)cyclobutan-1-ol] | > 2 | < 0.2 | < 0.2 | > 2 | < 0.2 | < 0.2 |  |  |
| CN1CCC2(C1)CN(c1cc(C(F)F)cc3cnc(NC4CCN(S(=O)(=O)C5CC5)CC4)nc13)C2 [Example 81, N-(1-(cyclopropylsulfonyl)piperidin-4-yl)-6-(difluoromethyl)-8-(6-methyl-2,6-diazaspiro[3.4]octan-2-yl)quinazolin-2-amine] | 0.5 to 2 | < 0.2 | < 0.2 | 0.5 to 2 | 0.2 to 0.5 | < 0.2 |  |  |
| CN1CC2(CCN(c3cc(C(F)F)cc4cnc(NC5CCN(c6ncc(C7CC7)cn6)CC5)nc34)C2)C1 [Example 64, N-(1-(5-cyclopropylpyrimidin-2-yl)piperidin-4-yl)-6-(difluoromethyl)-8-(2-methyl-2,6-diazaspiro[3.4]octan-6-yl)quinazolin-2-amine] | 0.5 to 2 | 0.5 to 2 | < 0.2 | > 2 | > 2 | > 2 |  |  |
